In PMC10518257 (Nature Cancer, 2023):
“And” between values parts separate entries of the source, which are not always exact repeats. Equal values may be shown once. Read-outs that look alike come from different tables or passages of the source.

Tests used:
[1] = system: Ba/F3 KIF5B–RET^G810R allograft tumors; assay: Subcutaneous allograft efficacy study;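 further: mean tumor volume per dosing group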; type: in vivo, BALB/c nude mice; conditions: Fig. 7d Ba/F3-KIF5B::RET G810R, selpercatinib 30 mg/kg BID, in mm³ (unit assumed)
[2] = system: ECLC5B cells; assay: Growth inhibition (alamarBlue, 96 h); type: cell-based, human; conditions: for raw viability signal (Source Data Fig. 3b-c): ECLC5B, replicates
[3] = system: Ba/F3 cells expressing KIF5B–RET^V804L; assay: Growth inhibition assay in Ba/F3 cells (CellTiter-Glo, 72 h); type: cell-based; conditions: replicate sets
[4] = system: phosphorylation of RET^G810R, RET^G810S and RET^G810C in Ba/F3 cells; assay: Western blotting of RET phosphorylation in Ba/F3 KIF5B–RET cells; type: cell-based; conditions: 1 h, western blot
[5] = system: HBECp53-EV cells; assay: Growth inhibition (alamarBlue, 96 h); type: cell-based, human; conditions: for raw viability signal (Source Data Fig. 3b-c): HBEC-EV, replicate sets
[6] = system: Ba/F3-CCDC6::RET^S904F; assay: Growth inhibition assay in Ba/F3 cells (CellTiter-Glo, 72 h); type: cell-based
[7] = system: Ba/F3 cells expressing KIF5B–RET^WT; assay: as above; type: cell-based
[8] = system: Ba/F3 cells expressing KIF5B–RET^G810R; assay: as above; type: cell-based; conditions: replicate Sets 1-3
[9] = system: LUAD-0002AS1 cells; assay: Growth inhibition (alamarBlue, 96 h); type: cell-based, human; conditions: for raw viability signal (Source Data Fig. 3b-c): LUAD-0002AS1, replicate sets
[10] = system: LUAD-0077AS1 PDX; assay: PDX efficacy study; type: in vivo, NSG mice; set-up: Tumor volume: unit not given here; conditions: 10 mg/kg BID
[11] = Transcellular transport study, apparent permeability; conditions: pig, LLC-PK1
[12] = Homo sapiens, 96 h, read-out: IC50 for Inhibition of Growth (95% CI)

## COc1ccc(CN2C3CC2CN(c2ccc(-c4cc(OCC(C)(C)O)cn5ncc(C#N)c45)cn2)C3)cn1 [Selpercatinib]
[1]; day 11
  Tumor Volume Mean: 551.9
[1]; day 15
  Tumor Volume Mean: 795.7
[2]; 0.01 nM
  raw viability signal (Source Data Fig. 3b-c): 10363.9 and 7402.21 and 18274
[2]; 0.1 nM
  raw viability signal (Source Data Fig. 3b-c): 11026.5 and 8834.98 and 20243.9
[2]; 1 nM
  raw viability signal (Source Data Fig. 3b-c): 10668.5 and 7252.95 and 17721.9
[2]; 10 nM
  raw viability signal (Source Data Fig. 3b-c): 3598.88 and 1351.95 and 6402.34
[2]; 100 nM
  raw viability signal (Source Data Fig. 3b-c): 3342.11 and 1356.99 and 4729.16
[2]; 1000 nM
  raw viability signal (Source Data Fig. 3b-c): 2886.96 and 1354.63 and 4277.75
[2]; 10000 nM
  raw viability signal (Source Data Fig. 3b-c): 1612.7 and 1276.67 and 2944.43
[2]; [12]
  IC50: 5 nM
[3]; Ba/3-KIF5B-RET-V804L
  GI50: 8.67 nM and 7.06 nM
[3]; Mus musculus, BaF3, Ba/3-KIF5B-RET-V804L
  GI50: 5.67 nM
[4]
  block of phosphorylation of RET^G810R, RET^G810S or RET^G810C: did not block
[5]; 0.01 nM
  raw viability signal (Source Data Fig. 3b-c): 19116.4 (2×) and 30437.1
[5]; 0.1 nM
  raw viability signal (Source Data Fig. 3b-c): 18667.6 (2×) and 30340.4
[5]; 1 nM
  raw viability signal (Source Data Fig. 3b-c): 19461.2 (2×) and 29511.3
[5]; 10 nM
  raw viability signal (Source Data Fig. 3b-c): 19276.9 (2×) and 28618.6
[5]; 100 nM
  raw viability signal (Source Data Fig. 3b-c): 19331.4 (2×) and 28192.3
[5]; 1000 nM
  raw viability signal (Source Data Fig. 3b-c): 18208.7 (2×) and 25648.6
[5]; 10000 nM
  raw viability signal (Source Data Fig. 3b-c): 8503.33
[5]; [12]
  IC50: 11400 nM
[6]; Mus musculus, BaF3, 72 h, read-out: GI50 value (Mean ± SD), Ba/F3-CCDC6::RET^S904F, CellTiter-Glo, 72 h
  GI50: 4.76 ± 3.02 nM
[6]; read-out: GI50 values, Ba/F3-CCDC6::RET S904F, individual sets (replicate experiments)
  GI50: 4.25 nM and 8 nM and 2.03 nM
[7]; Ba/3-KIF5B-RET, replicate sets
  GI50: 6.35 nM and 7.55 nM
[7]; Mus musculus, BaF3, 72 h, read-out: GI50 value (Mean ± SD), Ba/F3-KIF5B::RET, CellTiter-Glo, 72 h
  GI50: 6.68 ± 0.76 nM
[7]; Mus musculus, BaF3, Ba/3-KIF5B-RET, replicate sets
  GI50: 6.13 nM
[8]; Ba/3-KIF5B-RET-G810R
  GI50: 1070 nM and 1190 nM
[8]; Mus musculus, BaF3, Ba/3-KIF5B-RET-G810R
  GI50: 800 nM
[9]; [12]
  IC50: 3 nM
[9]; 0.01 nM
  raw viability signal (Source Data Fig. 3b-c): 16631.5 and 13192.5 and 12693
[9]; 0.1 nM
  raw viability signal (Source Data Fig. 3b-c): 14296.3 and 14495.9 and 14138.2
[9]; 1 nM
  raw viability signal (Source Data Fig. 3b-c): 14160.4 and 9635.41 and 11277.7
[9]; 10 nM
  raw viability signal (Source Data Fig. 3b-c): 3799.84 and 3179.94 and 4108.28
[9]; 100 nM
  raw viability signal (Source Data Fig. 3b-c): 2188.78 and 2790.7 and 3166.11
[9]; 1000 nM
  raw viability signal (Source Data Fig. 3b-c): 1304.58 and 2278.18 and 2772.5
[9]; 10000 nM
  raw viability signal (Source Data Fig. 3b-c): 935.372 and 1860.61 and 2356.9
[10]; Fig. 6b LUAD-0077AS1 tumor growth
  Area Under Curve Mean: -23
[10]; LUAD-0077AS1, individual animals
  Change in tumor volume (block without heading, Fig. 6b): 38.5614 and 19.1252 and 18.7579 and 13.1905 and -24.8651
[10]; LUAD-0077AS1, treatment day 0, individual animals
  Tumor volume: 87.11 (3×) and 85.5 and 88.7
[10]; LUAD-0077AS1, treatment day 4, individual animals
  Tumor volume: 68.07 (2×) and 74.9 and 73.54 and 70.82
[10]; LUAD-0077AS1, treatment day 7, individual animals
  Tumor volume: 60.32 and 69.38 and 66.76 and 62.86
[10]; LUAD-0077AS1, treatment day 11, individual animals
  Tumor volume: 55.4 and 58.99 and 56.5 and 54.36 and 55.52
[10]; LUAD-0077AS1, treatment day 14, individual animals
  Tumor volume: 43.41 and 58.99 (2×) and 54.36 and 55.52
[10]; LUAD-0077AS1, treatment day 19, individual animals
  Tumor volume: 65.45 and 118.47 and 103.45 and 103.77 and 100.4
[10]; LUAD-0077AS1, treatment day 22, individual animals
  Tumor volume: 73.3 and 171.06 and 147.55 and 142.9 and 164.22
[10]; LUAD-0077AS1, treatment day 25, individual animals
  Tumor volume: 73.3 and 231.59 and 205.8 and 209.11 and 214.85
[11]
  Papp at 3 h, 1 μM: 17 ×10⁻⁶ cm/s
